In patent US20250051403A1, “ANTIMICROBIAL PEPTIDES, VARIANTS AND CHEMICAL ANALOGUES THEREOF AND THEIR USES” (priority 2021, published 2025):
≈ marks a conversion by molar mass, not a printed value. Positions of bridges follow the written chain, without caps; N, C: chain ends. Residues, ends and D or L forms follow the SMILES beside them.

Legend:
[1] = tested on: Mycobacterium tuberculosis mc^26230

Compound | V. alginolyticus MIC (Vibrio alginolyticus) | M. tuberculosis mc^26230 MIC [1] | M. smegmatis mc^2155 MIC (M. smegmatis mc^2155) | P. aeruginosa MIC (P. aeruginosa) | MIC (Vibrio alginolyticus) | MIC (M. smegmatis mc^2155)
CC[C@H](C)[C@H](NC(=O)[C@@H](N)CCCNC(=N)N)C(=O)N[C@H]1CSSC[C@@H](C(=O)N[C@@H](Cc2c[nH]c3ccccc23)C(=O)N[C@@H](CC(N)=O)C(=O)N[C@H](C(=O)O)[C@@H](C)O)NC(=O)[C@H](CCCCN)NC(=O)[C@H](CCSC)NC(=O)[C@H](Cc2ccccc2)NC(=O)[C@@H]2CSSC[C@H](NC(=O)[C@H](C(C)C)NC(=O)[C@H](CCCNC(=N)N)NC(=O)[C@H](C(C)C)NC1=O)C(=O)N[C@@H](CCCNC(=N)N)C(=O)N[C@@H](CC(N)=O)C(=O)NCC(=O)N[C@@H](Cc1ccccc1)C(=O)N2 [V4, RIC1VRVC2RNGFC3FMKC4WNT] (H-RICVRVCRNGFCFMKCWNT-OH; disulfide 3-16, 7-12; N-terminus and C-terminus assumed) | 0.312 to 0.625 µM | 7.5 to 7.9 µM | 1.49 to 4.15 µM | 2.5 to 5 µM | – | –
CC[C@H](C)[C@@H]1NC(=O)[C@@H]2CSSC[C@H](NC(=O)[C@H](C(C)C)NC(=O)[C@H](CCCNC(=N)N)NC(=O)[C@H](C(C)C)NC(=O)[C@@H](NC(=O)[C@H](Cc3ccccc3)NC(=O)[C@@H](N)CCCNC(=N)N)CSSC[C@@H](C(=O)N[C@@H](Cc3c[nH]c4ccccc34)C(=O)N[C@@H](CC(N)=O)C(=O)N[C@H](C(=O)O)[C@@H](C)O)NC(=O)[C@H](CCCCN)NC(=O)[C@H](CCSC)NC1=O)C(=O)N[C@@H](CCCNC(=N)N)C(=O)N[C@@H](CC(N)=O)C(=O)NCC(=O)N[C@@H](CCCNC(=N)N)C(=O)N2 [V2, RFC1VRVC2RNGRC3IMKC4WNT] (H-RFCVRVCRNGRCIMKCWNT-OH; disulfide 3-16, 7-12; N-terminus and C-terminus assumed) | 0.312 to 0.625 µM | 19.7 to 30.0 µM | 0.72 to 2.95 µM | 2.5 to 5 µM | – | –
CC[C@H](C)[C@@H]1NC(=O)[C@H](CCCNC(=N)N)NC(=O)[C@H](C(C)C)NC(=O)[C@@H](NC(=O)[C@@H](NC(=O)[C@@H](N)CCCNC(=N)N)C(C)C)CSSC[C@@H](C(=O)N[C@@H](Cc2c[nH]c3ccccc23)C(=O)N[C@@H](CC(N)=O)C(=O)N[C@H](C(=O)O)[C@@H](C)O)NC(=O)[C@H](CCCCN)NC(=O)[C@H](CCSC)NC(=O)[C@H](Cc2ccccc2)NC(=O)[C@@H]2CSSC[C@H](NC1=O)C(=O)N[C@@H](CCCNC(=N)N)C(=O)N[C@@H](CC(N)=O)C(=O)NCC(=O)N[C@@H](Cc1ccccc1)C(=O)N2 [V8, RVC1VRIC2RNGFC3FMKC4WNT] (H-RVCVRICRNGFCFMKCWNT-OH; disulfide 3-16, 7-12; N-terminus and C-terminus assumed) | 0.125 to 0.312 µM | 7.3 to 11.9 µM | 0.72 to 3.92 µM | 1.25 to 2.5 µM | – | –
CC(C)[C@@H]1NC(=O)[C@H](CCCNC(=N)N)NC(=O)[C@H](C(C)C)NC(=O)[C@@H](NC(=O)[C@@H](NC(=O)[C@@H](N)CCCNC(=N)N)C(C)C)CSSC[C@@H](C(=O)N[C@@H](Cc2c[nH]c3ccccc23)C(=O)N[C@@H](CC(N)=O)C(=O)N[C@H](C(=O)O)[C@@H](C)O)NC(=O)[C@H](CCCNC(=N)N)NC(=O)[C@H](CCCNC(=N)N)NC(=O)[C@H](Cc2ccc(O)cc2)NC(=O)[C@@H]2CSSC[C@H](NC1=O)C(=O)N[C@@H](CCCNC(=N)N)C(=O)N[C@@H](CC(N)=O)C(=O)NCC(=O)N[C@@H](CCCNC(=N)N)C(=O)N2 [V1, RVC1VRVC2RNGRC3YRRC4WNT] (H-RVCVRVCRNGRCYRRCWNT-OH; disulfide 3-16, 7-12; N-terminus and C-terminus assumed) | 0.125 to 0.312 µM | 29.8 to 30.2 µM | 1.15 to 4.21 µM | 2.5 to 5 µM | – | –
CSCC[C@@H]1NC(=O)[C@H](Cc2ccccc2)NC(=O)[C@@H]2CSSC[C@H](NC(=O)[C@H](C(C)C)NC(=O)[C@H](CCCNC(=N)N)NC(=O)[C@H](C(C)C)NC(=O)[C@@H](NC(=O)[C@@H](NC(=O)[C@H](CO)NC(=O)[C@@H](NC(=O)[C@H](C)NC(=O)[C@H](CCCCN)NC(=O)[C@@H](N)CCCNC(=N)N)C(C)C)[C@@H](C)O)CSSC[C@@H](C(=O)N[C@@H](Cc3c[nH]c4ccccc34)C(=O)N[C@@H](CC(N)=O)C(=O)N[C@H](C(=O)O)[C@@H](C)O)NC(=O)[C@H](CCCCN)NC1=O)C(=O)N[C@@H](CCCNC(=N)N)C(=O)N[C@@H](CC(N)=O)C(=O)NCC(=O)N[C@@H](Cc1ccccc1)C(=O)N2 [V7, RKAVSTC2VRVC3RNGFC4FMKCWNT] (H-RKAVSTCVRVCRNGFCFMKCWNT-OH; disulfide 7-20, 11-16 (inferred); N-terminus and C-terminus assumed) | 0.125 to 0.312 µM | >30 µM | 9.22 to 13.1 µM | 2.5 to 5 µM | – | –
CC[C@H](C)[C@H](NC(=O)[C@H](CCCNC(=N)N)NC(=O)[C@@H](NC(=O)[C@H](CS)NC(=O)[C@@H](NC(=O)[C@@H](N)CCCNC(=N)N)C(C)C)C(C)C)C(=O)N[C@@H](CS)C(=O)N[C@@H](CCCNC(=N)N)C(=O)N[C@@H](CC(N)=O)C(=O)NCC(=O)N[C@@H](CCCNC(=N)N)C(=O)N[C@@H](CS)C(=O)N[C@@H](Cc1ccc(O)cc1)C(=O)N[C@@H](CCCNC(=N)N)C(=O)N[C@@H](CCCNC(=N)N)C(=O)N[C@@H](CS)C(=O)N[C@@H](Cc1c[nH]c2ccccc12)C(=O)N[C@@H](CC(N)=O)C(=O)N[C@H](C(=O)O)[C@@H](C)O [Linear unfolded analogue of Michelicin] (H-RVCVRICRNGRCYRRCWNT-OH; N-terminus and C-terminus assumed) | – | – | – | – | 0.625 µM (≈ 1.51 µg/mL) | 1.25 µM (≈ 3.02 µg/mL)
CSCC[C@@H]1NC(=O)[C@H](Cc2ccccc2)NC(=O)[C@@H]2CSSC[C@H](NC(=O)[C@H](C(C)C)NC(=O)[C@H](CCCNC(=N)N)NC(=O)[C@H](C(C)C)NC(=O)[C@@H](NC(=O)[C@@H](NC(=O)[C@@H](N)CCCNC(=N)N)C(C)C)CSSC[C@@H](C(=O)N[C@@H](Cc3c[nH]c4ccccc34)C(=O)N[C@@H](CC(N)=O)C(=O)N[C@H](C(=O)O)[C@@H](C)O)NC(=O)[C@H](CCCCN)NC1=O)C(=O)N[C@@H](CCCNC(=N)N)C(=O)N[C@@H](CC(N)=O)C(=O)NCC(=O)N[C@@H](Cc1ccccc1)C(=O)N2 [V9, RVC1VRVC2RNGFC3FMKC4WNT] (H-RVCVRVCRNGFCFMKCWNT-OH; disulfide 3-16, 7-12; N-terminus and C-terminus assumed) | 0.125 to 0.312 µM | 5.1 to 9.1 µM | 1.02 to 3.31 µM | 1.25 to 2.5 µM | – | –
CC[C@H](C)[C@@H]1NC(=O)[C@H](Cc2ccccc2)NC(=O)[C@H](CC(C)C)NC(=O)[C@@H]2CSSC[C@H](NC(=O)[C@H](CCCNC(=N)N)NC1=O)C(=O)N[C@@H](Cc1ccccc1)C(=O)N[C@@H](CCSC)C(=O)N[C@@H](CCCCN)C(=O)N[C@H](C(=O)N[C@@H](Cc1c[nH]c3ccccc13)C(=O)N[C@@H](CC(N)=O)C(=O)N[C@H](C(=O)O)[C@@H](C)O)CSSC[C@H](NC(=O)[C@H](Cc1ccccc1)NC(=O)[C@@H](N)CCCNC(=N)N)C(=O)N[C@@H](C(C)C)C(=O)N[C@@H](CCCNC(=N)N)C(=O)N[C@@H](C(C)C)C(=O)N2 [V5, RFC1VRVC2LFIRC3FMKC4WNT] (H-RFCVRVCLFIRCFMKCWNT-OH; disulfide 3-16, 7-12; N-terminus and C-terminus assumed) | 0.625 to 1.25 µM | 5.3 to 7.9 µM | 3.06 to 8.40 µM | >20 µM | – | –
CC[C@H](C)[C@@H]1NC(=O)[C@@H]2CSSC[C@H](NC(=O)[C@H](C(C)C)NC(=O)[C@H](CCCNC(=N)N)NC(=O)[C@H](C(C)C)NC(=O)[C@@H](NC(=O)[C@@H](NC(=O)[C@@H](N)CCCNC(=N)N)[C@@H](C)CC)CSSC[C@@H](C(=O)N[C@@H](Cc3c[nH]c4ccccc34)C(=O)N[C@@H](CC(N)=O)C(=O)N[C@H](C(=O)O)[C@@H](C)O)NC(=O)[C@H](CCCCN)NC(=O)[C@H](CCSC)NC1=O)C(=O)N[C@@H](CCCNC(=N)N)C(=O)N[C@@H](CC(N)=O)C(=O)NCC(=O)N[C@@H](CCCNC(=N)N)C(=O)N2 [V3, RIC1VRVC2RNGRC3IMKC4WNT] (H-RICVRVCRNGRCIMKCWNT-OH; disulfide 3-16, 7-12; N-terminus and C-terminus assumed) | 0.625 to 1.25 µM | 22.9 to 29.6 µM | 0.64 to 4.66 µM | 2.5 to 5 µM | – | –
CC[C@H](C)[C@H](NC(=O)[C@@H](N)CCCNC(=N)N)C(=O)N[C@H]1CSSC[C@@H](C(=O)N[C@@H](Cc2c[nH]c3ccccc23)C(=O)N[C@@H](CC(N)=O)C(=O)N[C@H](C(=O)O)[C@@H](C)O)NC(=O)[C@H](CCCCN)NC(=O)[C@H](CCSC)NC(=O)[C@H](Cc2ccccc2)NC(=O)[C@@H]2CSSC[C@H](NC(=O)[C@H](C(C)C)NC(=O)[C@H](CCCNC(=N)N)NC(=O)[C@H](C(C)C)NC1=O)C(=O)N[C@@H](CCCNC(=N)N)C(=O)N[C@@H](CC(N)=O)C(=O)NCC(=O)N[C@@H](CCCNC(=N)N)C(=O)N2 [V6, RIC1VRVC2RNGRC3FMKC4WNT] (H-RICVRVCRNGRCFMKCWNT-OH; disulfide 3-16, 7-12; N-terminus and C-terminus assumed) | 0.125 to 0.312 µM | >30 µM | 1.27 to 2.96 µM | >5 µM | – | –
